{"source": "patent US20030082249A1", "about": "“Compositions containing capsaicin and its derivatives, and their use in treating mucositis” (Ovation Pharmaceuticals, priority 2001, published 2003)", "key": {"substance P": {"test_system": "substance P", "settings": "comparison with capsaicin; prevents pain sensation without compromising touch or motor coordination; cited from earlier work"}, "[1]": {"assay": "Use of capsaicin to induce salivation: application to oral mucosa of a human subject, saliva collected for 15 minutes", "assay_type": "in vivo", "procedure": "A subject was used as a test subject to determine whether application of capsaicin to oral mucosa causes salivation. Approximately 0.25 inches of capsaicin (0.025% generic capsaicin cream) was applied to the oral mucosa. […] Saliva was collected for a period of about 15 minutes in a paper cup. The amount was compared to the amount of saliva collected for a period of 15 minutes before applying capsaicin to the oral mucosa. […] The increased salivation continued for approximately an hour. In preferred embodiments of the present invention, capsaicin or capsaicinoid is combined with one or more of the following: antihistamines such as Benadryl®, or other antihistamines, antibacterials, antifungals, antivirals, and/or antipruritis medications, such as those described above."}, "[2]": {"settings": "cited from earlier work"}}, "data": [{"compound": "COc1cc(CNC(=O)CCCC/C=C\\C(C)C)ccc1O", "note": "[Civamide, cis-capsaicin]", "values": [{"measurement": "depletion of substance P compared with capsaicin", "setting": "substance P", "result": "more effective than capsaicin in depleting substance P"}]}, {"compound": "COc1cc(CNC(=O)CCCC/C=C/C(C)C)ccc1O", "note": "[capsaicin]", "values": [{"measurement": "duration of increased salivation", "setting": "[1]; one subject, 0.025% capsaicin cream on oral mucosa", "result": "approximately an hour"}, {"measurement": "increase in salivation relative to baseline level of salivation", "setting": "[1]; one subject, about 0.25 inches of 0.025% capsaicin cream on oral mucosa, saliva collected about 15 minutes vs 15 minutes before application, estimated", "result": "about two to three times the baseline level"}, {"measurement": "sensation reported by the subject after application", "setting": "[1]; within a few minutes of application, increased in intensity for about twenty minutes", "result": "warm feeling in the mouth"}]}, {"compound": "CC[C@@H]1C(=O)OC[C@@H]1Cc1cncn1C", "note": "[pilocarpine]", "values": [{"measurement": "stimulation of salivary glands", "setting": "[2]; patients experiencing xerostomia due to radiotherapy", "result": "effective in stimulating salivary glands"}, {"measurement": "side effects of treatment", "setting": "[2]; pilocarpine treatment", "result": "often associated with side effects involving heart, blood pressure, digestion and profuse sweating"}]}]}
